PMC3817062, “N-Alkylated Aminoacyl sulfamoyladenosines as Potential Inhibitors of Aminoacylation Reactions and Microcin C Analogues Containing D-Amino Acids” (PLoS ONE, 2013)
Non-standard residues stand in square brackets, D forms with d. Residues, ends and D or L forms follow the SMILES beside them. *: point of attachment. AspNHSO2(5'-O-Ado) = Nc1ncnc2c1ncn2[C@@H]1O[C@H](COS(=O)(=O)NC(=O)[C@H](CC(=O)O)N*)[C@@H](O)[C@H]1O; X1 = Nc1ncnc2c1ncn2[C@@H]1O[C@H](COS(=O)(=O)NC(=O)[C@@H](CC(=O)O)N*)[C@@H](O)[C@H]1O; For = O=C*

Tests used:
McC-sensitive E. coli = assay: Whole cell activity determination (OD600), all cells tested; format: cell-based; details: all cells tested (Ara-Yej strain, E. coli lacking rim genes); OD600 after 8 h, 37 °C, LB; data not shown
LeuRS = target: T1, LeuRS (Escherichia coli, UniProt P07813); assay: In vitro tRNA aminoacylation in S30 cell extract, LeuRS; format: biochemical, E. coli; details: 50 µM, wild-type cell extract, triplicate; Figure 3
T1 construct: endogenous in cells; host or cells: E. coli wild-type S30 cell extract
Description: (§1) The growth inhibitory properties for all new compounds were determined by measuring the optical density reached by cultures of McC-sensitive E. coli in wells of microtiter plates in the presence of various concentrations of the respective inhibitors. As shown earlier, the intracellular target of McC analogs is determined by the C-terminal amino acid, which remains attached onto the sulfamoyladenosine following intracellular metabolism. To facilitate activity evaluation and the mechanism of action studies of newly synthesized compounds, an E. coli tester strain Ara-Yej (BW39758) was used, where the yejABEF operon is under control of the arabinose-inducible araBAD promoter. […] In addition to the Ara-Yej strain, E. coli lacking rim genes (and therefore hypersensitive to McC) was used as a tester strain. […] In in vitro aminoacylation experiments, compound 3 was tested for its potential to inhibit ProRS, GlyRS and AlaRS and compound 2 was tested for its ability to inhibit LeuRS in a wild-type cell extract. Established inhibitors of these enzymes are the respective 5’-O-[N-[L-aminoacyl]-sulfamoyl]adenosines: Pro-SA, Gly-SA, Ala-SA and Leu-SA [2-4]. […]
(§2) 1 μL of solution containing inhibitor, 3 μL of E. coli S30 extracts was added. […] Following the addition of scintillation liquid, the amount of radioactivity was determined in a scintillation counter.

ProRS [1] = target: T2, ProRS (Escherichia coli, UniProt P16659); assay: In vitro tRNA aminoacylation in S30 cell extract, ProRS; format: biochemical, E. coli; details: 50 µM, wild-type cell extract, triplicate; Figure 3
T2 construct: endogenous in cells; host or cells: E. coli wild-type S30 cell extract
Description: as §1, §2

AlaRS [2] = target: T3, AlaRS (Escherichia coli, UniProt P00957); assay: In vitro tRNA aminoacylation in S30 cell extract, AlaRS; format: biochemical, E. coli; details: 50 µM, wild-type cell extract, triplicate; Figure 3
T3 construct: endogenous in cells; host or cells: E. coli wild-type S30 cell extract
Description: as §1, §2

GlyRS [3] = target: T4, GlyRS (Escherichia coli, UniProt P00960); assay: In vitro tRNA aminoacylation in S30 cell extract, GlyRS; format: biochemical, E. coli; parameters: endogenous in cells; host or cells: E. coli wild-type S30 cell extract; details: 50 µM, wild-type cell extract, triplicate; Figure 3
Description: as §1, §2

AspRS = target: T5, AspRS (Escherichia coli, UniProt P21889); assay: In vitro tRNA aminoacylation in S30 cell extracts, AspRS; format: biochemical, E. coli; details: for inhibition of AspRS in vitro: aminoacylation in cell extracts, compound needs no metabolism
T5 construct: endogenous in cells; host or cells: S30 extracts of E. coli ΔrimL, ΔpepABN and Δdtd cells
Description: Figure 5 Aminoacylation experiments of the McC analogues containing (D)-amino acids at 50 µM. Upper panel: 30 min incubation with a cell extract deficient of RimL. Middle panel: 30 min incubation with a cell extract deficient of PepA, PepB and PepN. Lower panel: Comparison of two McC analogues targeting AspRS, compound 8 having a C-terminal D-configuration, compound 1f having a C-terminal (L)-configuration. Incubation was done with two different cell extracts, lacking either DTD or RimL.
To investigate whether compound 8 would be more resistant than compound 1f to MccF-catalyzed hydrolysis and/or MccE/RimL-catalyzed acetylation, and to investigate a possible role of DTD, a time-course of tRNA^Asp aminoacylation inhibition was followed in two different cell extracts, one prepared from cells lacking Rim proteins, and another from cells lacking DTD. From Figure 5 (lower panel) it can be observed that at time point zero, i.e., immediately after addition of the compounds, there was no inhibition since the compounds were still unmetabolized. […] Upon further incubation, the reaction recovered from inhibition for both compounds. For compound 8 this effect was more pronounced than for compound 1f, especially in cell extracts prepared from cells lacking DTD proteins.
To assess the degree of inhibition of the aminoacylation reaction, in vitro tests were performed using the relevant S30 cell extracts.
Cells were grown in 50 mL LB-medium. After centrifuging at 3000 × g for 10 min. the supernatant was discarded and the pellet was resuspended in 40 mL buffer containing: Tris.HCl or Hepes.KOH (pH = 8.0) (20 mM), MgCl2 (10 mM), KCl (100 mM). The cell-suspension was centrifuged again at 4800 rpm. This procedure was repeated 2 times. The pellet was resuspended in 1 mL of the following buffer Tris.HCl or Hepes.KOH (pH = 8.0) (20 mM), MgCl2 (10 mM), KCl (100 mM), DTT (1 mM) and kept at 0 °C. Subsequently, the cells were sonicated for 10 sec. and left at 0 °C for 10 min. This procedure was repeated for 5-8 times. The lysate was centrifuged at 15000 g for 30 min at +4 °C.
1 μL of solution containing inhibitor, 3 μL of E. coli S30 extracts was added. Next, 16 μL of the following aminoacylation mixture was added: Tris.HCl (30mM, pH 8.0), DTT (1 mM), bulk of E. coli tRNA (5 g/l), ATP (3 mM), KCl (30 mM), MgCl2 (8 mM), and the specified, radio labeled amino acid (40 μM). The reaction products were precipitated in cold 10% TCA on Whatman 3MM papers, 5 min. after the aminoacylation mixture was added. The aminoacylation reaction was carried out at room temperature. Depending on whether or not processing was needed, variable time intervals were included between the addition of the cell-extract and the addition of the aminoacylation mixture. After thorough washing with cold 10% TCA, the papers were washed twice with acetone and dried on a heating plate. Following the addition of scintillation liquid, the amount of radioactivity was determined in a scintillation counter.

[4] = tested on: peptidases PepA, PepB and PepN; assay: Metabolism (processing) of the peptide chain by peptidases, release of the active moiety; format: in vitro ADME; details: E. coli S30 cell extracts; concluded from aminoacylation inhibition experiments
Source text: This is a somewhat expected result as it has frequently been shown that the introduction of (D)-amino acids can prevent the hydrolysis by peptidases.
Compounds 5-7 were especially designed to circumvent this problem; all three compounds contain L-amino acids at the sixth and seventh position, allowing endopeptidases to cleave between these two L-amino acids, resulting in release of the active moiety. […] Also the modification in compound 6, inspired by albomycin whereby pepN hydrolyzes the peptide bond between a serine and a modified amino acid carrying an acidic side chain [22], could not rescue the activity. […] Whether or not incorporation of (D)-amino acids in the transport peptide part interferes with uptake of the McC derivatives by the YejABEF transporter is less relevant here, as in vitro tests already show lack of activity. Additional reduced uptake of the analogues 4-7 however cannot be excluded.
Cells were grown in 50 mL LB-medium. After centrifuging at 3000 × g for 10 min. the supernatant was discarded and the pellet was resuspended in 40 mL buffer containing: Tris.HCl or Hepes.KOH (pH = 8.0) (20 mM), MgCl2 (10 mM), KCl (100 mM). […]
as §2

AlaRS [5] = target: T3, AlaRS; details: positive control, previously shown; cited from earlier work
Description: (§3) All experiments were performed in triplicate.

GlyRS [6] = target: T4, GlyRS; details: positive control, previously shown; cited from earlier work
ProRS [7] = target: T2, ProRS; details: positive control, previously shown; cited from earlier work
Description: as §3

[8] = time course, extract from cells lacking DTD, at 15 min

T5 sequence (P21889 whole entry): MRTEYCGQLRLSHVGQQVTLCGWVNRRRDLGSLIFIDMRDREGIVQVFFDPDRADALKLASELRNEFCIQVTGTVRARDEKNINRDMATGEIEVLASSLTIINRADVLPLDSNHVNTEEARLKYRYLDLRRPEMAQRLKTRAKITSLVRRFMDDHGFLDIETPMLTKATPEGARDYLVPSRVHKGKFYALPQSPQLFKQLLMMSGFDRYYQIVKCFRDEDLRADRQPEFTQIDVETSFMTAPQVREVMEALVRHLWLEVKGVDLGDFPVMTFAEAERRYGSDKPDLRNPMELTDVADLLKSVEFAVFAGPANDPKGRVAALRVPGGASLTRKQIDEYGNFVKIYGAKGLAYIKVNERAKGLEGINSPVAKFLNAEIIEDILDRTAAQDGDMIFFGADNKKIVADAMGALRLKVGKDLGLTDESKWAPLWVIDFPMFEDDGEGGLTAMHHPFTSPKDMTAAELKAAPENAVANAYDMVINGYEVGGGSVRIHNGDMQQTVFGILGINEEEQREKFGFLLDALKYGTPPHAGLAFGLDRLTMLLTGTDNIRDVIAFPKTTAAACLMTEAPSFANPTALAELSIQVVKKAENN
T3 sequence (P00957 whole entry): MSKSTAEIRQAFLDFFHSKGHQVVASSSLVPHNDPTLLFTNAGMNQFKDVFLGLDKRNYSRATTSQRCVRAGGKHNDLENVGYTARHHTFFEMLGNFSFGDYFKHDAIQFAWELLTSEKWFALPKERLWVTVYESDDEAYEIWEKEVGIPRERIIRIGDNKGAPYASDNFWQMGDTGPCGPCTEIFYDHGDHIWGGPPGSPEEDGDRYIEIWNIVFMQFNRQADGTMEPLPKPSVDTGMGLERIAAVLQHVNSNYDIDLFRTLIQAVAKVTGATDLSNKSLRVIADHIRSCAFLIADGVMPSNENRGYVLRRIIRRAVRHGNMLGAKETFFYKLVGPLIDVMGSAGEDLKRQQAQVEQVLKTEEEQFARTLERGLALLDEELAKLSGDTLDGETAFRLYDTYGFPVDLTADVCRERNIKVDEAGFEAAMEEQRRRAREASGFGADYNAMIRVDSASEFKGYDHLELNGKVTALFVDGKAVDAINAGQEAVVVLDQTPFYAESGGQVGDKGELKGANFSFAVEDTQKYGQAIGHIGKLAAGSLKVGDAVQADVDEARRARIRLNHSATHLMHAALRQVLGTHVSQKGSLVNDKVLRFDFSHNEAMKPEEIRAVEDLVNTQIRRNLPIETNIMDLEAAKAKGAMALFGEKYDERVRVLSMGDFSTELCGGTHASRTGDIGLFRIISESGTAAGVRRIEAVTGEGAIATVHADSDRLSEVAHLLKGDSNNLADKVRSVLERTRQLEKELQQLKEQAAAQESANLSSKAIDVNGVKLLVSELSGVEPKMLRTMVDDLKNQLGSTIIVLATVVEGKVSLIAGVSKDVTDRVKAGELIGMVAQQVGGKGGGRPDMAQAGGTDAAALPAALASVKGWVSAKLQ
T2 sequence (P16659 whole entry): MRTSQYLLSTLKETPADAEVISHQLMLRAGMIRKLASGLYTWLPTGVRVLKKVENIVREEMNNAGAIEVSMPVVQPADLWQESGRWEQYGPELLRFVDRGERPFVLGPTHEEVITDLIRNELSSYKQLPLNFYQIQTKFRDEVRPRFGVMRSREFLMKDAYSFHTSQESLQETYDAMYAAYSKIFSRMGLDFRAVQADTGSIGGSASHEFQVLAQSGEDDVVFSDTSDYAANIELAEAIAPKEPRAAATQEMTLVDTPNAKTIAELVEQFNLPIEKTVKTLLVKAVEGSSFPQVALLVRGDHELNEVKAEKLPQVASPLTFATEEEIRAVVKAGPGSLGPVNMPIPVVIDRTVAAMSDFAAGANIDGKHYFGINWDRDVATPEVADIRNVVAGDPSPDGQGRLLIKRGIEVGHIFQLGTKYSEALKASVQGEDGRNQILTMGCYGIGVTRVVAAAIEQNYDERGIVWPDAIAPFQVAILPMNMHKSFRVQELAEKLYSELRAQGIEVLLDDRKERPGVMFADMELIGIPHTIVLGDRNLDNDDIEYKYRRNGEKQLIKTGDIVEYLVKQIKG
T4 sequence (P00961 2-689): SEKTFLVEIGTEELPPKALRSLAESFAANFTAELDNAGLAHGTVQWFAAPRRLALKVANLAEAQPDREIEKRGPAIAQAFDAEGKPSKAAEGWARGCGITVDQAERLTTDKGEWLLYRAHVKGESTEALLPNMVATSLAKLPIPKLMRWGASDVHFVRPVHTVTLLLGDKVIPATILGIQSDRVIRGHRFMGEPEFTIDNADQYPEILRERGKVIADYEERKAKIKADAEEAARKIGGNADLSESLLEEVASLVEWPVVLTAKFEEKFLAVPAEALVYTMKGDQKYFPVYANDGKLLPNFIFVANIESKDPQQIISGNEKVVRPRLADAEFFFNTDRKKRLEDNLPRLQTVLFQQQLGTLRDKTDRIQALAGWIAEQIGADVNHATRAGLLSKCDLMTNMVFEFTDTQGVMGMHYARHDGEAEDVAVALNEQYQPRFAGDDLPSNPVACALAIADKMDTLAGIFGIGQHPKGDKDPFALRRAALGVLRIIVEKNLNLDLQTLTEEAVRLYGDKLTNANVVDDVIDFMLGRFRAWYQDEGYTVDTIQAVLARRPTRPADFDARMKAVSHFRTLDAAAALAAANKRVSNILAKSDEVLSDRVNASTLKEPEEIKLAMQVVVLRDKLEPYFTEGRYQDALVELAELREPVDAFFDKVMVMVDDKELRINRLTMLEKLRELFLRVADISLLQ
T4 sequence (P00960 whole entry): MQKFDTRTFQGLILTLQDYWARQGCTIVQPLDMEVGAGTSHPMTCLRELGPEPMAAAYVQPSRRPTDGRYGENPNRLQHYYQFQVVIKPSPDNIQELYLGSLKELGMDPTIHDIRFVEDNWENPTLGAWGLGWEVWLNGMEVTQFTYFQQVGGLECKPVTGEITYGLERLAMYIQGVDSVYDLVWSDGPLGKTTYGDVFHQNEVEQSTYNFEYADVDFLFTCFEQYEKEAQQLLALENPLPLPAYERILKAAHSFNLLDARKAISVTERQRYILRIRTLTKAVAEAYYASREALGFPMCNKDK
T1 sequence (P07813 whole entry): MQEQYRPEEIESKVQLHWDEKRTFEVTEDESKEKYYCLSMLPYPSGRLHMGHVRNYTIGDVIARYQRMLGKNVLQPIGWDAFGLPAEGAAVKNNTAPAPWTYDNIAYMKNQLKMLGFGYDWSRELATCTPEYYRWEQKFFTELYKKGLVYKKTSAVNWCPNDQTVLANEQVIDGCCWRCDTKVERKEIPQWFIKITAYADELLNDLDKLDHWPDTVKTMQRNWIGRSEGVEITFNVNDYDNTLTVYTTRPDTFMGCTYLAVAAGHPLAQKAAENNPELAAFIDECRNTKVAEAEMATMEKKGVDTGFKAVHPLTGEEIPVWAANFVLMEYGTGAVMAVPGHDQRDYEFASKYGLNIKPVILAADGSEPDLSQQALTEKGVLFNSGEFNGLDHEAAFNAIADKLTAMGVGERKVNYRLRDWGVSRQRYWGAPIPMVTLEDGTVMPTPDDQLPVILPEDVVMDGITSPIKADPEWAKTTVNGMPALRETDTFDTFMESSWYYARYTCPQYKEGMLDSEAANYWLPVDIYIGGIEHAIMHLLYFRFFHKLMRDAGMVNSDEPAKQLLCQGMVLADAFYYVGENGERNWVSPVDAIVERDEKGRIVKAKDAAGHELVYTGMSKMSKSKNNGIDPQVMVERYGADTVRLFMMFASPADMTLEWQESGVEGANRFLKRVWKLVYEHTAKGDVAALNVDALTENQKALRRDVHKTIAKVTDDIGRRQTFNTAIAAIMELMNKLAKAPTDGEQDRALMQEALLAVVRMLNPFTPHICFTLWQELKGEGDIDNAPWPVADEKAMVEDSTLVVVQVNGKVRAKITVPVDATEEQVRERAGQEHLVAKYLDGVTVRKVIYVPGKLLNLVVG

With CN[C@@H](CC(C)C)C(=O)NS(=O)(=O)OC[C@H]1O[C@@H](n2cnc3c(N)ncnc32)[C@H](O)[C@@H]1O [compound 2, 5’-O-[N-[(L)-N-methyl-leucyl]-sulfamoyl]adenosine] the “whole-cell activity (growth inhibition)” value (McC-sensitive E. coli) was “inactive” and the “inhibition of LeuRS aminoacylation” value (LeuRS) was “inactive”.

For CNCC(=O)NS(=O)(=O)OC[C@H]1O[C@@H](n2cnc3c(N)ncnc32)[C@H](O)[C@@H]1O [compound 3, sarcosyl-sulfamoyladenosine], the “whole-cell activity (growth inhibition)” value (McC-sensitive E. coli) was “inactive”, the “inhibition of ProRS aminoacylation” value (ProRS [1]) was “does not show any major inhibitory binding affinity” and the “inhibition of AlaRS aminoacylation” value (AlaRS [2]) was “could not be targeted”. For the same compound, the “inhibition of GlyRS aminoacylation” value (GlyRS [3]) was “could not be targeted”.

For CSCC[C@H](NC=O)C(=O)N[C@@H](CCCNC(=N)N)C(=O)N[C@H](C(=O)NCC(=O)N[C@@H](CC(N)=O)C(=O)N[C@@H](C)C(=O)N[C@H](CC(=O)O)C(=O)NS(=O)(=O)OC[C@H]1O[C@@H](n2cnc3c(N)ncnc32)[C@H](O)[C@@H]1O)[C@@H](C)O [compound 8] (For-MRTGNA-X1), the “reduction of esterification of Asp-C14 to tRNAAsp” value (AspRS; time course, extract from cells lacking DTD, after 60 min) was 44%, the “incorporation of Asp-C14 into tRNAAsp” value (AspRS; [8]) was 11% and the “inhibition of tRNAAsp aminoacylation” value (AspRS; [8]) was 89%. The “metabolism by the peptidases (release of the active moiety)” value [4] was “can metabolize”.

For C[C@H](N)C(=O)NS(=O)(=O)OC[C@H]1O[C@@H](n2cnc3c(N)ncnc32)[C@H](O)[C@@H]1O [Ala-SA], the “inhibition of AlaRS” value (AlaRS [5]) is given as “potent inhibitors”.

In the case of NCC(=O)NS(=O)(=O)OC[C@H]1O[C@@H](n2cnc3c(N)ncnc32)[C@H](O)[C@@H]1O [Gly-SA], the “inhibition of GlyRS” value (GlyRS [6]) is listed as “potent inhibitors”.

In the case of Nc1ncnc2c1ncn2[C@@H]1O[C@H](COS(=O)(=O)NC(=O)[C@H](N)CC(=O)O)[C@@H](O)[C@H]1O [compound 9, (D)-aspartyl-sulfamoyladenosine], the “inhibition of AspRS in vitro” value (AspRS) is reported as “can also inhibit AspRS” and the “inhibition of AspRS in vitro” value (AspRS; listed as (D)-D-SA) is reported as “equally inhibitory”.

For Nc1ncnc2c1ncn2[C@@H]1O[C@H](COS(=O)(=O)NC(=O)[C@@H]2CCCN2)[C@@H](O)[C@H]1O [Pro-SA, 5’-O-[N-[(L)-prolyl]-sulfamoyl]adenosine], the “inhibition of ProRS” value (ProRS [7]) is listed as “potent inhibitors”.

In the case of Nc1ncnc2c1ncn2[C@@H]1O[C@H](COS(=O)(=O)NC(=O)[C@@H](N)CC(=O)O)[C@@H](O)[C@H]1O [compound 10, (L)-aspartyl-sulfamoyladenosine, reference compound], the “inhibition of AspRS in vitro” value (AspRS) is reported as “equally inhibitory”.

For CSCC[C@H](NC=O)C(=O)N[C@H](CCCNC(=N)N)C(=O)N[C@@H](C(=O)NCC(=O)N[C@H](CC(N)=O)C(=O)N[C@H](C)C(=O)N[C@@H](CC(=O)O)C(=O)NS(=O)(=O)OC[C@H]1O[C@@H](n2cnc3c(N)ncnc32)[C@H](O)[C@@H]1O)[C@H](C)O [compound 4] (For-M[dR][dT]G[dN][dA]-{AspNHSO2(5'-O-Ado)}), the “metabolism by the peptidases (release of the active moiety)” value [4] was “not capable of hydrolyzing”.
